# Results taken from patent US20230139445A1, “BACTERIAL CELLS WITH IMPROVED TOLERANCE TO DIACIDS” (priority 2016, published 2023).
# Where two headings read alike, the source gives them in different places.
# Experiments:
# [1] = test system: Escherichia coli K-12 MG1655; assay: Screening for tolerance in wild-type cells: growth in varying concentrations of neutralized diacid, Biolector; format: cell-based; conditions: for tlag (lag time), mean / μ (growth rate), mean: neutralized with sodium hydroxide
# Description: Escherichia coli K-12 MG1655 was grown overnight in M9 minimal medium+1% glucose and subcultured the following morning to an initial OD600 of 0.05 in M9+1% glucose. Cells were grown to mid-exponential phase (OD600 0.7-1.0) and were back-diluted with fresh medium to an OD600 of 0.7. The diluted cells were used to inoculate M9+1% glucose containing varying concentrations of glutaric acid or adipic acid which were neutralized to pH 7.0 with sodium hydroxide, and growth was measured in FlowerPlates in a Biolector microbioreactor system (m2p-labs) at 37° C. with 1000 rpm shaking. The culture volume in each well was 1.4 mL.
# [2] = test system: Escherichia coli K-12 MG1655 and evolved isolates; format: cell-based; conditions: 38 g/L sebacic acid
# Description: Five colonies from wild-type K-12 MG1655 and 10 individual colonies deriving from each population were inoculated into 300 μL M9+1% glucose in 96 well deepwell plates and incubated in a 300 rpm plate shaker at 37° C. The next day, cells were diluted 10× in M9+1% glucose and 30 μL was transferred into clear-bottomed 96 well half-deepwell plates (with rectangular wells) containing M9+1% glucose and M9+1% glucose+52.78 g/L glutaric acid or 55.56 g/L adipic acid, such that the final concentration of glutaric acid or adipic acid was 47.5 g/L or 50 g/L, respectively. In addition, cryogenic glycerol stocks of the overnight culture were saved in a 96 well plate format. Half deepwell plates were incubated at 37° C. with 225 rpm shaking in a Growth Profiler (Enzyscreen), with optical scans of the plates taken at 15 minute intervals. Green pixel values integrated over a 1 mm diameter circular area in each well were converted to OD600 values using a previously determined calibration between OD600 and green pixel values.
# Additionally, each evolved isolate was tested for cross-tolerance toward other dicarboxylic acids of interest. […] All diacids tested were either the neutral sodium salts, or the free diacid was neutralized with sodium hydroxide to pH 7.0 for testing.
smiles,measurement,setting,value
O=C(O)CCCCCCCCC(=O)O [sebacic acid],"tlag (lag time), mean",[1]; 10 g/L,1.9 h
same,"μ (growth rate), mean","[1]; 10 g/L, M9+1% glucose, 37° C",0.707 h⁻¹
same,"tlag (lag time), mean",[1]; 20 g/L,2.7 h
same,"μ (growth rate), mean",[1]; 20 g/L,0.578 h⁻¹
same,"tlag (lag time), mean",[1]; 25 g/L,3.3 h
same,"μ (growth rate), mean",[1]; 25 g/L,0.413 h⁻¹
same,"tlag (lag time), mean",[1]; 30 g/L,5.7 h
same,"μ (growth rate), mean",[1]; 30 g/L,0.386 h⁻¹
same,"tlag (lag time), mean",[1]; 35 g/L,10.8 h
same,"μ (growth rate), mean",[1]; 35 g/L,0.306 h⁻¹
same,"tlag (lag time), mean",[1]; 40 g/L,22.5 h
same,"μ (growth rate), mean",[1]; 40 g/L,0.222 h⁻¹
same,"tlag (lag time), mean",[1]; 45 g/L,50.6 h
same,"μ (growth rate), mean",[1]; 45 g/L,0.051 h⁻¹
same,growth of K-12 MG1655,[1]; above 40 g/L concentration,nearly no growth detected
same,growth rate μ (mean),[2]; strain ADIP1-1,0.244 h⁻¹
same,lag time tlag (mean),[2]; strain ADIP1-1,21.6 h
same,growth rate μ (mean),[2]; strain ADIP1-9,0.248 h⁻¹
same,lag time tlag (mean),[2]; strain ADIP1-9,17.8 h
same,growth rate μ (mean),[2]; strain ADIP2-5,0.315 h⁻¹
same,lag time tlag (mean),[2]; strain ADIP2-5,13.5 h
same,growth rate μ (mean),[2]; strain ADIP2-6,0.319 h⁻¹
same,lag time tlag (mean),[2]; strain ADIP2-6,12.9 h
same,growth rate μ (mean),[2]; strain ADIP2-10,0.290 h⁻¹
same,lag time tlag (mean),[2]; strain ADIP2-10,13.4 h
same,growth rate μ (mean),[2]; strain ADIP3-2,0.254 h⁻¹
same,lag time tlag (mean),[2]; strain ADIP3-2,17.6 h
same,growth rate μ (mean),[2]; strain ADIP3-4,0.262 h⁻¹
same,lag time tlag (mean),[2]; strain ADIP3-4,17.1 h
same,growth rate μ (mean),[2]; strain ADIP3-8,0.253 h⁻¹
same,lag time tlag (mean),[2]; strain ADIP3-8,19.8 h
same,growth rate μ (mean),[2]; strain ADIP4-1,0.308 h⁻¹
same,lag time tlag (mean),[2]; strain ADIP4-1,13.1 h
same,growth rate μ (mean),[2]; strain ADIP4-8,0.289 h⁻¹
same,lag time tlag (mean),[2]; strain ADIP4-8,12.8 h
same,growth rate μ (mean),[2]; strain ADIP5-2,0.288 h⁻¹
same,lag time tlag (mean),[2]; strain ADIP5-2,15.3 h
same,growth rate μ (mean),[2]; strain ADIP5-6,0.273 h⁻¹
same,lag time tlag (mean),[2]; strain ADIP5-6,20.7 h
same,growth rate μ (mean),[2]; strain ADIP6-3,0.268 h⁻¹
same,lag time tlag (mean),[2]; strain ADIP6-3,17.9 h
same,growth rate μ (mean),[2]; strain ADIP6-9,0.181 h⁻¹
same,lag time tlag (mean),[2]; strain ADIP6-9,23.1 h
same,growth rate μ (mean),[2]; strain ADIP6-10,0.267 h⁻¹
same,lag time tlag (mean),[2]; strain ADIP6-10,15.3 h
same,growth rate μ (mean),[2]; strain ADIP7-2,0.356 h⁻¹
same,lag time tlag (mean),[2]; strain ADIP7-2,11.1 h
same,growth rate μ (mean),[2]; strain ADIP7-5,0.353 h⁻¹
same,lag time tlag (mean),[2]; strain ADIP7-5,12.0 h
same,growth rate μ (mean),[2]; strain ADIP8-3,0.171 h⁻¹
same,lag time tlag (mean),[2]; strain ADIP8-3,28.9 h
same,growth rate μ (mean),[2]; strain ADIP8-7,0.157 h⁻¹
same,lag time tlag (mean),[2]; strain ADIP8-7,30.9 h
same,growth rate μ (mean),[2]; strain ADIP8-10,0.165 h⁻¹
same,lag time tlag (mean),[2]; strain ADIP8-10,30.0 h
same,growth rate μ (mean),[2]; strain GLUT1-3,0.074 h⁻¹
same,lag time tlag (mean),[2]; strain GLUT1-3,34.9 h
same,growth rate μ (mean),[2]; strain GLUT1-9,0.043 h⁻¹
same,lag time tlag (mean),[2]; strain GLUT1-9,44.7 h
same,growth rate μ (mean),[2]; strain GLUT1-10,0.278 h⁻¹
same,lag time tlag (mean),[2]; strain GLUT1-10,20.6 h
same,growth rate μ (mean),[2]; strain GLUT2-1,0.153 h⁻¹
same,lag time tlag (mean),[2]; strain GLUT2-1,21.7 h
same,growth rate μ (mean),[2]; strain GLUT2-9,0.282 h⁻¹
same,lag time tlag (mean),[2]; strain GLUT2-9,12.5 h
same,growth rate μ (mean),[2]; strain GLUT2-10,0.093 h⁻¹
same,lag time tlag (mean),[2]; strain GLUT2-10,29.8 h
same,growth rate μ (mean),[2]; strain GLUT3-5,0.106 h⁻¹
same,lag time tlag (mean),[2]; strain GLUT3-5,20.0 h
same,growth rate μ (mean),[2]; strain GLUT3-7,0.068 h⁻¹
same,lag time tlag (mean),[2]; strain GLUT3-7,6.4 h
same,growth rate μ (mean),[2]; strain GLUT3-9,0.158 h⁻¹
same,lag time tlag (mean),[2]; strain GLUT3-9,18.9 h
same,growth rate μ (mean),[2]; strain GLUT4-1,0.266 h⁻¹
same,lag time tlag (mean),[2]; strain GLUT4-1,32.9 h
same,growth rate μ (mean),[2]; strain GLUT4-4,0.265 h⁻¹
same,lag time tlag (mean),[2]; strain GLUT4-4,34.2 h
same,growth rate μ (mean),[2]; strain GLUT4-10,0.113 h⁻¹
same,lag time tlag (mean),[2]; strain GLUT4-10,20.1 h
same,growth rate μ (mean),[2]; strain GLUT5-4,0.183 h⁻¹
same,lag time tlag (mean),[2]; strain GLUT5-4,37.7 h
same,growth rate μ (mean),[2]; strain GLUT5-5,0.117 h⁻¹
same,lag time tlag (mean),[2]; strain GLUT5-5,54.9 h
same,growth rate μ (mean),[2]; strain GLUT5-9,0.143 h⁻¹
same,lag time tlag (mean),[2]; strain GLUT5-9,58.2 h
same,growth rate μ (mean),[2]; strain GLUT6-4,0.085 h⁻¹
same,lag time tlag (mean),[2]; strain GLUT6-4,26.4 h
same,growth rate μ (mean),[2]; strain GLUT6-5,0.123 h⁻¹
same,lag time tlag (mean),[2]; strain GLUT6-5,21.6 h
same,growth rate μ (mean),[2]; strain GLUT6-10,0.132 h⁻¹
same,lag time tlag (mean),[2]; strain GLUT6-10,26.2 h
same,growth rate μ (mean),[2]; strain GLUT7-2,0.173 h⁻¹
same,lag time tlag (mean),[2]; strain GLUT7-2,17.5 h
same,growth rate μ (mean),[2]; strain GLUT7-6,0.141 h⁻¹
same,lag time tlag (mean),[2]; strain GLUT7-6,18.9 h
same,growth rate μ (mean),[2]; strain GLUT7-7,0.112 h⁻¹
same,lag time tlag (mean),[2]; strain GLUT7-7,20.0 h
same,growth rate μ (mean),[2]; strain GLUT8-5,0.300 h⁻¹
same,lag time tlag (mean),[2]; strain GLUT8-5,21.4 h
same,growth rate μ (mean),[2]; strain GLUT8-6,0.464 h⁻¹
same,lag time tlag (mean),[2]; strain GLUT8-6,13.7 h
same,growth rate μ (mean),[2]; strain GLUT8-9,0.471 h⁻¹
same,lag time tlag (mean),[2]; strain GLUT8-9,14.5 h
same,growth rate μ (mean),[2]; strain MG1655 (Table 28),0.167 h⁻¹
same,lag time tlag (mean),[2]; strain MG1655 (Table 28),26.9 h
same,growth rate μ (mean),[2]; strain MG1655 (Table 29),0.135 h⁻¹
same,lag time tlag (mean),[2]; strain MG1655 (Table 29),28.2 h
